The values that follow come from patent US20130116231A1, “TYROSINE KINASE INHIBITORS” (Merck Sharp & Dohme Corp., priority 2010, published 2013).

One may read the pIC50 as the negative decadic logarithm of the IC50, by convention in mol/L.

In the experiment the target is T1, human c-Met (Homo sapiens, UniProt P08581).
T1 construct: Recombinant GST-tagged cytosolic domains of human c-Met; 6xHis; made in house; host or cells: Sf9 or Sf21 insect cells (baculovirus)
The experiment is described as follows: in vitro kinase assay (homogeneous time-resolved tyrosine kinase assay, METKA). It counts as biochemical. To be noted: recombinant GST-tagged c-Met cytosolic domain, HTRF, 50 μM MgATP; read-out: Biological Activity (METKA IC50) Activity Code. In short, it runs like this: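 HTRF assay with GST-tagged cytosolic c-Met domain (0.2 nM), 0.5 μM biotinylated peptide, 50 μM MgATP, pH 7.4, 5% DMSO, 80 min at room temperature; Eu-anti-pTyr/SA-APC detection, IC50 by 4-parameter fit. Other kinases identical except enzyme level: mouse c-Met 0.2, Ron 2.5, KDR 8, IGFR 0.24, EGFR 0.24, FGFR 0.14, Mer 16, TrkA 8, Tie2 8 nM.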
In general terms: TR-FRET usually uses a lanthanide donor and a delayed reading to cut background.

pIC50: −log10 of the molar value. Some results are limits rather than exact numbers.

T1 sequence (P08581 956-1390 limits assumed): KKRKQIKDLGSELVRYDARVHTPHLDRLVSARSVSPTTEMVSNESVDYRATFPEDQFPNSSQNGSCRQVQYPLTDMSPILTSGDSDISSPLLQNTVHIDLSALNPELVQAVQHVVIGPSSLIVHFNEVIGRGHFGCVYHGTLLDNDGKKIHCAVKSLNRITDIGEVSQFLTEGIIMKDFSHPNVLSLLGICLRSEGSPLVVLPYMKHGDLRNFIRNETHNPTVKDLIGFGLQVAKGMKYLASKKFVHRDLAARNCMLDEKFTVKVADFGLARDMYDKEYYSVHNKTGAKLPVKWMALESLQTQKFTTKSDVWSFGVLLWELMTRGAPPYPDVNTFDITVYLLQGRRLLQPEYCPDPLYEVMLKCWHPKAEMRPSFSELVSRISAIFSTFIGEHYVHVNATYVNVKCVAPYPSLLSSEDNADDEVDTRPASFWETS

Consider `Cc1cnc2ccc(OCc3nn(-c4cnn(C)c4)ccc3=O)cc2c1` [Example 71, 1-(1-Methyl-1H-pyrazol-4-yl)-3-{[(3-methylquinolin-6-yl)oxy]methyl}pyridazin-4(1H)-one], for which the negative logarithm of the IC50 (pIC50) is above 7.00.

For `CCc1cnc2ccc(OCc3nn(-c4cnn(C)c4)ccc3=O)cc2c1` [Example 72, 3-{[(3-ethylquinolin-6-yl)oxy]methyl}-1-(1-methyl-1H-pyrazol-4-yl)pyridazin-4(1H)-one], the pIC50 was above 7.00.

In the case of `COCc1cnc2ccc(OCc3nn(-c4cnn(C)c4)ccc3=O)cc2c1` [Example 73, 3-({[3-(methoxymethyl)quinolin-6-yl]oxy}methyl)-1-(1-methyl-1H-pyrazol-4-yl)pyridazin-4(1H)-one], the pIC50 was above 7.00.

As for `Cn1cc(-n2ccc(=O)c(COc3ccc4ncc(-c5cccnc5)cc4c3)n2)cn1` [Example 74, 1-(1-Methyl-1H-pyrazol-4-yl)-3-{[(3-pyridin-3-ylquinolin-6-yl)oxy]methyl}pyridazin-4(1H)-one], the pIC50 was above 7.00.

`Cn1cc(-c2cnc3ccc(OCc4nn(-c5cnn(C)c5)ccc4=O)cc3c2)cn1` [Example 75]: the pIC50 is above 7.00.

Regarding `CCn1cc(-n2ccc(=O)c(COc3ccc4ncc(-c5ccc(S(C)(=O)=O)cc5)cc4c3)n2)cn1` [Example 76, 1-(1-Ethyl-1H-pyrazol-4-yl)-3-[({3-[4-(methylsulfonyl)phenyl]quinolin-6-yl}oxy)methyl]pyridazin-4(1H)-one], the pIC50 is above 7.00.

For `CCn1cc(-n2ccc(=O)c(COc3ccc4ncc(-c5cnn(CCOC)c5)cc4c3)n2)cn1` [Example 77, 1-(1-ethyl-1H-pyrazol-4-yl)-3-[({3-[1-(2-methoxyethyl)-1H-pyrazol-4-yl]quinolin-6-yl}oxy)methyl]pyridazin-4(1H)-one], the pIC50 is above 7.00.

`CCn1cc(-n2ccc(=O)c(COc3ccc4ncc(-c5ccc(F)cc5)cc4c3)n2)cn1` [Example 78, 1-(1-ethyl-1H-pyrazol-4-yl)-3-({[3-(4-fluorophenyl)quinolin-6-yl]oxy}methyl)pyridazin-4(1H)-one]: the pIC50 is above 7.00.

For the compound `CCn1cc(-n2ccc(=O)c(COc3ccc4ncc(-c5ccc(OC)cc5)cc4c3)n2)cn1` [Example 79, 1-(1-ethyl-1H-pyrazol-4-yl)-3-({[3-(4-methoxyphenyl)quinolin-6-yl]oxy}methyl)pyridazin-4(1H)-one], the pIC50 is above 7.00.

Regarding `CCn1cc(-n2ccc(=O)c(COc3ccc4ncc(-c5ccncc5)cc4c3)n2)cn1` [Example 80, 1-(1-ethyl-1H-pyrazol-4-yl)-3-{[(3-pyridin-4-ylquinolin-6-yl)oxy]methyl}pyridazin-4(1H)-one], the negative logarithm of the IC50 (pIC50) is above 7.00.

Regarding `CCn1cc(-n2ccc(=O)c(COc3ccc4ncc(-c5ccc(C#N)nc5)cc4c3)n2)cn1` [Example 81, 5-(6-{[1-(1-ethyl-1H-pyrazol-4-yl)-4-oxo-1,4-dihydropyridazin-3-yl]methoxy}quinolin-3-yl)pyridine-2-carbonitrile], the pIC50 is above 7.00.

In the case of `CCn1cc(-n2ccc(=O)c(COc3ccc4ncc(-c5ccc(OC)nc5)cc4c3)n2)cn1` [Example 82, 1-(1-ethyl-1H-pyrazol-4-yl)-3-({[3-(6-methoxypyridin-3-yl)quinolin-6-yl]oxy}methyl)pyridazin-4(1H)-one], the pIC50 was above 7.00.

Consider `CCn1cc(-n2ccc(=O)c(COc3ccc4ncc(-c5ccccc5F)cc4c3)n2)cn1` [Example 83, 1-(1-ethyl-1H-pyrazol-4-yl)-3-({[3-(2-fluorophenyl)quinolin-6-yl]oxy}methyl)pyridazin-4(1H)-one], for which the pIC50 was above 7.00.

In the case of `CCn1cc(-n2ccc(=O)c(COc3ccc4ncc(-c5ccccc5C)cc4c3)n2)cn1` [Example 84, 1-(1-ethyl-1H-pyrazol-4-yl)-3-({[3-(2-methylphenyl)quinolin-6-yl]oxy}methyl)pyridazin-4(1H)-one], the pIC50 was above 7.00.

For the compound `CCn1cc(-n2ccc(=O)c(COc3ccc4ncc(-c5cncnc5)cc4c3)n2)cn1` [Example 85, 1-(1-ethyl-1H-pyrazol-4-yl)-3-{[(3-pyrimidin-5-ylquinolin-6-yl)oxy]methyl}pyridazin-4(1H)-one], the pIC50 is above 7.00.

As to `CCn1cc(-n2ccc(=O)c(COc3ccc4ncc(-c5cscn5)cc4c3)n2)cn1` [Example 86, 1-(1-ethyl-1H-pyrazol-4-yl)-3-({[3-(1,3-thiazol-4-yl)quinolin-6-yl]oxy}methyl)pyridazin-4(1H)-one], the pIC50 was above 7.00.

`CCn1cc(-n2ccc(=O)c(COc3ccc4ncc(-c5ccc(N6CCOCC6)nc5)cc4c3)n2)cn1` [Example 87, 1-(1-ethyl-1H-pyrazol-4-yl)-3-({[3-(6-morpholin-4-ylpyridin-3-yl)quinolin-6-yl]oxy}methyl)pyridazin-4(1H)-one]: the pIC50 is above 7.00.

Regarding `CCn1cc(-n2ccc(=O)c(COc3ccc4ncc(-c5ccc(Cl)nc5)cc4c3)n2)cn1` [Example 88, 3-({[3-(6-chloropyridin-3-yl)quinolin-6-yl]oxy}methyl)-1-(1-ethyl-1H-pyrazol-4-yl)pyridazin-4(1H)-one], the pIC50 was above 7.00.

With `CCn1cc(-n2ccc(=O)c(COc3ccc4ncc(-c5ccc(C(F)(F)F)cc5)cc4c3)n2)cn1` [Example 89, 1-(1-ethyl-1H-pyrazol-4-yl)-3-[({3-[4-(trifluoromethyl)phenyl]quinolin-6-yl}oxy)methyl]pyridazin-4(1H)-one], the pIC50 was above 7.00.

`CCn1cc(-n2ccc(=O)c(COc3ccc4ncc(-c5cccc(F)c5)cc4c3)n2)cn1` [Example 90, 1-(1-ethyl-1H-pyrazol-4-yl)-3-({[3-(3-fluorophenyl)quinolin-6-yl]oxy}methyl)pyridazin-4(1H)-one]: the pIC50 was above 7.00.

Consider `CCn1cc(-n2ccc(=O)c(COc3ccc4ncc(-c5ccccc5)cc4c3)n2)cn1` [Example 91, 1-(1-ethyl-1H-pyrazol-4-yl)-3-{[(3-phenylquinolin-6-yl)oxy]methyl}pyridazin-4(1H)-one], for which the pIC50 is above 7.00.

Consider `Cn1cc(-n2ccc(=O)c(COc3ccc4ncc(-c5cnn(C6CN(C(=O)OC(C)(C)C)C6)c5)cc4c3)n2)cn1` [Example 92, tert-Butyl 3-[4-(6-{[1-(1-methyl-1H-pyrazol-4-yl)-4-oxo-1,4-dihydropyridazin-3-yl]methoxy}quinolin-3-yl)-1H-pyrazol-1-yl]azetidine-1-carboxylate], for which the pIC50 is above 7.00.

For the compound `Cn1cc(-n2ccc(=O)c(COc3ccc4ncc(-c5cnn(C6CNC6)c5)cc4c3)n2)cn1` [Example 93, 3-[({3-[1-(Azetidin-3-yl)-1H-pyrazol-4-yl]quinolin-6-yl}oxy)methyl]-1-(1-methyl-1H-pyrazol-4-yl)pyridazin-4(1H)-one], the pIC50 is above 7.00.

As for `Cn1cc(-n2ccc(=O)c(COc3ccc4ncc(-c5cnn(C6CCNCC6)c5)cc4c3)n2)cn1` [Example 94, 1-(1-methyl-1H-pyrazol-4-yl)-3-[({3-[1-(piperidin-4-yl)-1H-pyrazol-4-yl]quinolin-6-yl}oxy)methyl]pyridazin-4(1H)-one], the pIC50 is above 7.00.

On to `COC(=O)c1cnc2ccc(OCc3nn(-c4cnn(C)c4)ccc3=O)cc2c1` [Example 95, Methyl 6-{[1-(1-methyl-1H-pyrazol-4-yl)-4-oxo-1,4-dihydropyridazin-3-yl]methoxy}quinoline-3-carboxylate], for which the pIC50 is 6.00 to 7.00.

On to `Cn1cc(-n2ccc(=O)c(COc3ccc4ncc(-c5cnn(C6COC6)c5)cc4c3)n2)cn1` [Example 96, 1-(1-Methyl-1H-pyrazol-4-yl)-3-[({3-[1-(oxetan-3-yl)-1H-pyrazol-4-yl]quinolin-6-yl}oxy)methyl]pyridazin-4(1H)-one], for which the pIC50 is above 7.00.

Consider `Cn1cc(-n2ccc(=O)c(COc3ccc4nccc(Cl)c4c3)n2)cn1` [Example 97, 3-{[(4-Chloroquinolin-6-yl)oxy]methyl}-1-(1-methyl-1H-pyrazol-4-yl)pyridazin-4(1H)-one], for which the pIC50 is above 7.00.

With `CCc1ccnc2ccc(OCc3nn(-c4cnn(C)c4)ccc3=O)cc12` [Example 98, 3-{[(4-Ethylquinolin-6-yl)oxy]methyl}-1-(1-methyl-1H-pyrazol-4-yl)pyridazin-4(1H)-one], the pIC50 is above 7.00.

With `COCCOc1cnc2ccc(SCc3nn(-c4cnn(C)c4)ccc3=O)cc2c1` [Example 99, 3-({[3-(2-Methoxyethoxy)quinolin-6-yl]sulfanyl}methyl)-1-(1-methyl-1H-pyrazol-4-yl)pyridazin-4(1H)-one], the pIC50 is above 7.00.

As to `CCOc1cnc2ccc(SCc3nn(-c4cnn(C)c4)ccc3=O)cc2c1` [Example 100, 3-{[(3-ethoxyquinolin-6-yl)sulfanyl]methyl}-1-(1-methyl-1H-pyrazol-4-yl)pyridazin-4(1H)-one], the pIC50 is above 7.00.

For `Cn1cc(-n2ccc(=O)c(CSc3ccc4ncccc4c3)n2)cn1` [Example 101, 1-(1-Methyl-1H-pyrazol-4-yl)-3-[(quinolin-6-ylsulfanyl)methyl]pyridazin-4(1H)-one], the negative logarithm of the IC50 (pIC50) was above 7.00.

Turning to `COCCOc1cnc2ccc(NCc3nn(-c4cnn(C)c4)ccc3=O)cc2c1` [Example 102, 3-({[3-(2-Methoxyethoxy)quinolin-6-yl]amino}methyl)-1-(1-methyl-1H-pyrazol-4-yl)pyridazin-4(1H)-one], the negative-log IC50 (pIC50) is above 7.00.

As for `CCOc1cnc2ccc(NCc3nn(-c4cnn(C)c4)ccc3=O)cc2c1` [Example 103, 3-{[(3-ethoxyquinolin-6-yl)amino]methyl}-1-(1-methyl-1H-pyrazol-4-yl)pyridazin-4(1H)-one], the pIC50 was 6.00 to 7.00.

With `Cn1cc(-n2ccc(=O)c(CNc3ccc4ncccc4c3)n2)cn1` [Example 104, 1-(1-Methyl-1H-pyrazol-4-yl)-3-[(quinolin-6-ylamino)methyl]pyridazin-4(1H)-one], the pIC50 was above 7.00.
